Data: paper PMC6600665, “Identification and Characterization of Approved Drugs and Drug-Like Compounds as Covalent Escherichia coli ClpP Inhibitors” (International Journal of Molecular Sciences, 2019)
Values joined by “and” are separate entries in the source; they are usually repeats but may differ in a detail not shown here. Identical values can stand only once. Like-named read-outs stand apart in the source and are kept apart here.

Legend:
[1] = test system: E. coli BW25-113 (wild type); experiment: Growth delay under nitric oxide stress (DPTA NONOate) in M9 medium, wild type; assay type: cell-based; details: WT E. coli, M9 minimal medium
Experimental: (§1) Assessment of E. coli growth delay in presence of nitric oxide stress was carried out following our recently published protocol, which is an adaptation of the method reported by Robinson and Brynildsen to a 96-well plate format. Fresh MHB medium was inoculated with isolated colonies of E. coli BW25-113 or E. coli JW0427-1, grown on Luria Agar, and left overnight in a shaking incubator (250 rpm) at 37 °C. On the following day, the overnight culture was used to inoculate fresh M9 medium (supplemented with 10 mM glucose) 1:100, and was grown until OD600 ~0.3. Afterwards, the culture was transferred into 96-well, flat-bottom, sterile clear plates (#167008, Nunc, VWR). Bacterial OD600 was adjusted to 0.1 with M9 medium (supplemented with 10 mM glucose). Test compounds were transferred into the 96-well plates, followed by addition of the bacterial culture. Nitric oxide stress was induced by addition of 2 mM DPTA NONOate ((Z)-1-[N-(3-aminopropyl)-N-(3-ammoniopropyl)amino]diazen-1-ium-1,2-diolate, Cayman Chemical, Ann Arbor, MI, USA), dissolved in NaOH (final concentration 0.14 mM). Absorbance measurements (600 nm) were done with a Multiskan GO or Varioskan LUX plate reader (Thermo Fisher Scientific, Finland) at hourly intervals for 24 h. Between measurements, plates were incubated in a shaking incubator (500 rpm) at 37 °C.

E. coli ClpP [2] = molecular target: T1, E. coli ClpP (Escherichia coli, UniProt P0A6G7); experiment: Fluorescence-based E. coli ClpP proteolytic activity assay (Suc-LY-AMC), primary screen and dose-response; assay type: biochemical; details: for E. coli ClpP inhibition [%] in the primary screen: 200 µM
T1 construct: His-tag; made in house; host or cells: E. coli SG1146a
Experimental: Briefly, 25 ng/μL of E. coli ClpP dissolved in a buffer containing 100 mM NaCl, 100 mM 4-(2-hydroxyethyl)-1-piperazineethanesulfonic acid (HEPES) pH 7.5, and 0.05% Brij® 35 were transferred into each well. Test compound addition (final concentration 200 µM) was carried out using an Echo® 550 liquid handling system (Labcyte, Sunnyvale, CA, USA). […] Changes in fluorescence (excitation 350 nm, emission 435 nm) were monitored at 1 min intervals at 30 °C over 1 h using an Infinite M1000 microplate reader (Tecan).
The assay was carried out as described above with increasing concentrations of test compounds. Dose-response experiments were done at least 3 times independently, each in technical triplicates.
Calculation of Z prime (Z’) for HTS assay performance was done according to Zhang et al.. Plates were considered for further analyses if Z’ > 0.6 [26].

E. coli ClpP [3] = molecular target: T1, E. coli ClpP; experiment: Surface plasmon resonance binding to immobilized ClpP; details: 80 µM, injected over 7 min, 30 min dissociation
Experimental: E. coli ClpP (80 μg/mL) protein was immobilized, using amine coupling (SPR-AS-HCA-03, Bruker Daltonics Inc., Billerica, MA, USA), onto the surface of the sensor chip of a SIERRA SPR-16 instrument (Bruker Daltonics GmbH, Bremen, Germany). ClpP protein was dissolved in acetate at pH 4. The running buffer contained 150 mM NaCl, 10 mM Hepes, 3 mM EDTA, and 0.05% (v/v) Tween-20. The flow rate for protein immobilization was 10 μL/min. Binding experiments were carried out using running buffer with the addition of 0.8% (v/v) of DMSO and 80 µM test substance (flow rate of 20 μL/min for 7 min and up to 30 min of dissociation time). […] SPR data were analyzed using the Analyzer 3 software (Bruker Daltonics GmbH), which includes algorithms for subtracting reference signals and accounting for non-specific interactions between the solvent and the sensor chip surface.

bovine α-chymotrypsin = molecular target: T2, bovine α-chymotrypsin (Bos taurus, UniProt P00766); experiment: Serine protease selectivity assay with bovine α-chymotrypsin (Suc-LY-AMC); assay type: biochemical; details: 200 μM compound concentration
T2 construct: purchased Sigma-Aldrich C4129
Experimental: Compound selectivity was assessed using bovine α-chymotrypsin (#C4129, Sigma-Aldrich, St. Louis, MO, USA) at 200 µM. The assay was carried out as described above, except that 1 ng/μL of α-chymotrypsin and 100 μM of Suc-LY-AMC substrate were dissolved in a buffer containing 150 mM NaCl, 10 mM CaCl2, 50 mM Tris-HCl, and 0.05% Brij® 35.

E. coli JW0427 (ΔclpP) [4] = experiment: Growth delay under nitric oxide stress (DPTA NONOate) in M9 medium, clpP-deficient strain; assay type: cell-based; details: clpP-deficient E. coli, DPTA NONOate, compared with cells without compound
Experimental: as §1

MCF-7 cells = experiment: in vitro; assay type: cell-based
Experimental: (§2) Potential cell toxicity of the tested compounds was evaluated by ATP quantification using the CellTiter-Glo® luminescent cell viability assay (Promega, Madison, WI, USA). […] After incubation, 20 µL of CellTiter-Glo® reagent were added per well and incubated at room temperature in the dark for another 30 min. Luminescence was quantified by an EnVision multi-plate reader (PerkinElmer, Rodgau, Germany).

A549 cells = experiment: in vitro; assay type: cell-based
Experimental: as §2

HTC-116 cells = experiment: in vitro; assay type: cell-based
Experimental: as §2

E. coli JW0427 (ΔclpP) [5] = experiment: Antibacterial growth inhibition assay in MHB, clpP-deficient strain; assay type: cell-based; details: Escherichia coli, 24 h, read-out: Growth Inhibition (%)
Experimental: (§3) The potential of hit compounds to interfere with bacterial growth was evaluated in E. coli BW25-113 (wild type) and tolC-deficient strain E. coli JW5503 [34] (obtained from the NBRP-E. coli collection at the National Institute of Genetics, Mishima, Japan). The effect of the compounds on wild-type strain E. coli BW25-113 and the isogenic clpP-deficient E. coli JW0427-1 [34] (coli genetic stock center, New Haven, CT, USA) were measured in the presence of the efflux pump inhibitor Phe-Arg β-naphthylamide dihydrochloride (#P4157, Sigma-Aldrich, USA) at 25 μM. Single colonies of the bacterial strains from Mueller Hinton Agar culture were used to inoculate 5 mL of saline solution. The suspension was transferred into fresh, sterile Mueller Hinton broth (MHB) medium, resulting in a final concentration of 10^6 CFU/mL. Growth assays were carried out in 96-well, flat-bottom, sterile clear plates (#167008, Nunc, VWR, Radnor, PA, USA) and compounds were tested at 50 and 100 μM concentration (2% DMSO). Absorbance at 600 nm was measured using the Multiskan GO or Varioskan LUX plate reader (Thermo Fisher Scientific, Vantaa, Finland) for 24 h at hourly intervals. Between measurements, plates were incubated in a shaking incubator (500 rpm) at 37 °C.

[6] = test system: E. coli BW25-113 (wild type); experiment: Antibacterial growth inhibition assay in MHB, wild type; assay type: cell-based; details: 24 h; for inhibition at 100 µM: Escherichia coli, read-out: Growth Inhibition (%)
Experimental: as §3

in vitro = assay type: cell-based; details: human, 48 h incubation, 1:3 dilutions starting from 200 μM
Experimental: as §2

E. coli JW5503 (ΔtolC) = experiment: Antibacterial growth inhibition assay in MHB, efflux pump-defective strain; assay type: cell-based; details: Escherichia coli, 24 h, read-out: Growth Inhibition (%)
Experimental: as §3

[7] = read-out: E. coli ClpP inhibition [%] in the primary screen, primary screen, 200 µM
[8] = read-out: Inhibition (%) at 200 μM E. coli ClpP, 200 μM compound concentration
[9] = E. coli WT, without PAβN, 100 μM, 37 °C, MHB
[10] = A549 cells, read-out: Cytotoxicity A549 IC50
[11] = HTC-116 cells, read-out: Cytotoxicity HTC-116 IC50
[12] = MCF-7 cells, read-out: Cytotoxicity MCF-7 IC50
[13] = both tested concentrations (50 and 100 μM)

T1 sequence (P0A6G7 15-207): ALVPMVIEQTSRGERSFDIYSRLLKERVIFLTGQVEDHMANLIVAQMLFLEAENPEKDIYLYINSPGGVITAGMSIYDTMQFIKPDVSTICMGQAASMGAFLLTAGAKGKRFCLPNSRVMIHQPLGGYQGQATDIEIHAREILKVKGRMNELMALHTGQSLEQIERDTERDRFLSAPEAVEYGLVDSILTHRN

| SMILES | E. coli ClpP inhibition [%] in the primary screen (E. coli ClpP [2]) | SPR signal (resonance units, RU) (E. coli ClpP [3]) | Inhibition (%) at 200 μM α-Chymotrypsin (bovine α-chymotrypsin) | Growth delay in presence of nitric oxide stress (E. coli JW0427 (ΔclpP) [4]) | Cytotoxicity MCF-7 Ratio (IC50 cytotoxicity/IC50 ClpP) (MCF-7 cells; MCF-7) | Cytotoxicity A549 Ratio (IC50 cytotoxicity/IC50 ClpP) (A549 cells; A549) | inhibition at 100 µM (E. coli JW0427 (ΔclpP) [5]) [%] | IC50 (E. coli ClpP [2]) [µM] | inhibition at 200 µM (E. coli ClpP [2]; [7]) [%] | inhibition at 200 µM (E. coli ClpP [2]; [8]) [%] | inhibition at 200 µM (bovine α-chymotrypsin) [%] | Cytotoxicity HTC-116 Ratio (IC50 cytotoxicity/IC50 ClpP) (HTC-116 cells; HTC-116) | IC50 at 48 h (in vitro; [10]) [µM] | IC50 at 48 h (in vitro; [11]) [µM] | IC50 at 48 h (in vitro; [12]) [µM] | Bacterial growth in absence of NO• stress [1, 13] | Covalent / irreversible binding to ClpP by SPR (E. coli ClpP [3]) | other results |
| --- | --- | --- | --- | --- | --- | --- | --- | --- | --- | --- | --- | --- | --- | --- | --- | --- | --- | --- |
| N.N.[Cl-].[Cl][Pt+].c1ccncc1 [cDPCP] | 91.16% and > 90% | high RU values | 84.7% | did not show any significant effect | 0.13 | 5.33 |  |  |  |  |  |  |  |  |  |  |  | Bacterial growth in absence of NO• stress ([1]; 100 μM compound): clearly influenced; Inhibition (%) at 200 μM E. coli ClpP (E. coli ClpP [2]; 200 μM compound concentration): 91.2%; IC50 (E. coli ClpP [2]; dose-response, 1:3 dilution starting from 200 μM, substrate Suc-LY-AMC, read-out: E. coli ClpP IC50): 24.6 µM; IC50 (MCF-7 cells; 48 h incubation, 1:3 dilutions starting from 200 μM, read-out: Cytotoxicity MCF-7 IC50): 3.27 µM; IC50 (A549 cells; 48 h incubation, 1:3 dilutions starting from 200 μM, read-out: Cytotoxicity A549 IC50): 131 µM; IC50 (HTC-116 cells; 48 h incubation, 1:3 dilutions starting from 200 μM, read-out: Cytotoxicity HTC-116 IC50): 283 µM |
| CO[C@@]1(NC(=O)CSCC#N)C(=O)N2C(C(=O)O)=C(CSc3nnnn3C)CS[C@@H]21 [Cefmetazole, cefmetazole] | > 90% |  | no inhibition |  |  | 73.53 | 100 | 3.4 | 94.5 | 94.5 | 0 | 1597.06 | 250 | 5430 | 74.1 |  |  | inhibition at 100 µM [6, 9]: 100%; inhibition at 100 µM (E. coli JW5503 (ΔtolC)): 100% |
| O=c1oc(Cl)c(Cl)c2ccccc12 [3,4-DIC, 3,4-dichloroisocoumarin] | > 90% |  | completely inhibited | did not show any significant effect | 1.85 | 9.12 |  | 4.9 | 98.9 | 98.9 | 101 | 9.2 | 44.7 | 45.1 | 9.06 | small growth delay | covalent binding | Growth Inhibition (%) [6, 9]: did not show any intrinsic antimicrobial activities |
| CC(C)C[C@H](NC(=O)[C@H](Cc1ccccc1)NC(=O)c1cnccn1)B(O)O [Bortezomib, bortezomib] | > 90% | low change of absolute resonance unit | completely inhibited |  |  |  | 100 | 0.04 | 100 | 100 | 97.8 |  |  |  |  | did not show any effect | covalent binding | inhibition at 100 µM [6]: 55%; Cytotoxicity MCF-7 Ratio (IC50 cytotoxicity/IC50 ClpP) (MCF-7 cells): 1; Cytotoxicity A549 Ratio (IC50 cytotoxicity/IC50 ClpP) (A549 cells): 0.005; Cytotoxicity HTC-116 Ratio (IC50 cytotoxicity/IC50 ClpP) (HTC-116 cells): 0.005 |
